In patent publication US4134980A, “Phenylalkylamino-alkyl derivatives of quinazolinone and phthalazinone” (Boehringer Ingelheim GmbH, priority 1976, dated 1979):
Structures can show the parent of a compound that is named as a salt.

Legend:
heart rate [1] = assay: Effect on heart rate in anesthetized cats (Table I); type: in vivo
heart rate [2] = assay: Effect on heart rate in anesthetized dogs (Table II); type: in vivo
[3] = LD50 in mice, observation time of 14 days; details: mouse, in vivo, iv, observation time of 14 days
Description: Additionally, it should be noted that at all dosage levels the test compounds were tolerated very well and produced no toxic side-effects.

Row | SMILES | Decrease in heart rate (heart rate [1]; 0.5 mg/kg i.v.) | Duration of Effective action (heart rate [1]; 0.5 mg/kg i.v.) | Decrease in heart rate (heart rate [1]; 1.0 mg/kg i.v.) | Duration of Effective action (heart rate [1]; 1.0 mg/kg i.v.) | Decrease in heart rate (heart rate [1]; 2.0 mg/kg i.v.) | Duration of Effective action (heart rate [1]; 2.0 mg/kg i.v.) | Decrease in heart rate (heart rate [2]; 0.25 mg/kg i.v.) | Duration of Effective action (heart rate [2]; 0.25 mg/kg i.v.) | Decrease in heart rate (heart rate [2]; 1.0 mg/kg i.v.) | Duration of Effective action (heart rate [2]; 1.0 mg/kg i.v.) | also measured
1 | COc1ccc(CCN(C)CCCn2nc(C)c3cc(OC)c(OC)cc3c2=O)cc1OC.Cl [A, 1-[4-methyl-6,7-dimethoxy-1(2H)-phthalazinone-2-yl]-3-[N-methyl-N-(2-(3,4-dimethoxyphenyl)-ethyl)-amino]-propane hydrochloride] | -16 beats/minute | > 50 min | -23 beats/minute | > 70 min | -37 beats/minute | > 70 min | -10 beats/minute | 17 min | -16 beats/minute | 24 min | Decrease in heart rate (heart rate [1]; 2.0 mg/kg i.d.): -25 beats/minute; Duration of Effective action (heart rate [1]; 2.0 mg/kg i.d.): > 74 min; Decrease in heart rate (heart rate [1]; 4.0 mg/kg i.d.): -34 beats/minute; Duration of Effective action (heart rate [1]; 4.0 mg/kg i.d.): > 60 min; Decrease in heart rate (heart rate [1]; 10.0 mg/kg i.d.): -41 beats/minute; Duration of Effective action (heart rate [1]; 10.0 mg/kg i.d.): > 50 min; Decrease in heart rate (heart rate [2]; 0.5 mg/kg i.v.): -12 beats/minute; Duration of Effective action (heart rate [2]; 0.5 mg/kg i.v.): 15 min; LD50 at 336 h [3]: 63 mg/kg
2 | COc1ccc(CCN(C)CCCn2nc(C)c3cc(OC)c(OC)cc3c2=O)cc1.Cl [B, 1-[4-methyl-6,7-dimethoxy-1(2H)-phthalazinone-2-yl]-3-[N-methyl-N-(2-(4-methoxyphenyl)-ethyl)-amino]-propane hydrochloride] | – | – | – | – | – | – | -6 beats/minute | 24 min | -23 beats/minute | 46 min | –
3 | COc1ccc(CCN(C)CCCn2nc(C(C)C)c3cc(OC)c(OC)cc3c2=O)cc1OC [C, 1-[4-isopropyl-6,7-dimethoxy-1(2H)-phthalizinone-2-yl]-3-[N-methyl-N-(2-(3,4-dimethoxyphenyl)-ethyl)-amino]-propane hydrochloride] | – | – | – | – | – | – | – | – | -10 beats/minute | 17 min | Decrease in heart rate (heart rate [2]; 2.0 mg/kg i.v.): -29 beats/minute; Duration of Effective action (heart rate [2]; 2.0 mg/kg i.v.): 10 min
4 | COc1ccc(CCN(C)CCCn2ncc3cc(OC)c(OC)cc3c2=O)cc1.Cl [D, 1-[6,7-dimethoxy-1(2H)-phthalazinone-2-yl]-3-[N-methyl-N-(2-(4-methoxyphenyl)-ethyl)-amino]-propane hydrochloride] | -6 beats/minute | 10 min | -13 beats/minute | 25 min | -14 beats/minute | 25 min | – | – | – | – | –
5 | COc1ccc(CCN(C)CCn2nc(C)c3cc(OC)c(OC)cc3c2=O)cc1OC [E, 1-[4-methyl-6,7-dimethoxy-1(2H)-phthalizinone-2-yl]-3-[N-methyl-N-(2-(3,4-dimethoxyphenyl)-ethyl)-amino]-ethane hydrochloride] | – | – | -10 beats/minute | 9 min | -13 beats/minute | 10 min | – | – | – | – | –
